Test results reported in PubChem BioAssay (NCI).
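In this assay, cells in 96-well plates receive the compound at five concentrations for 48 hours. Endpoints are linearly interpolated between the surrounding concentrations. GI50: concentration for 50% inhibition of growth. TGI marks complete inhibition of growth.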

Columns and labels:
Experiment in all cases: DTP human tumour cell line panel, 48 h
MALME-3M melanoma = tested on: MALME-3M melanoma
HOP-62 NSCLC = tested on: HOP-62 NSCLC
SK-MEL-5 melanoma = tested on: SK-MEL-5 melanoma
HCT-15 colon = tested on: HCT-15 colon
PC-3 prostate = tested on: PC-3 prostate
U251 CNS = tested on: U251 CNS
SK-MEL-28 melanoma = tested on: SK-MEL-28 melanoma
T-47D breast = tested on: T-47D breast
NCI-H226 lung = tested on: NCI-H226 lung
SW-620 colon = tested on: SW-620 colon
RPMI-8226 leukemia = tested on: RPMI-8226 leukemia
NCI-H522 lung = tested on: NCI-H522 lung
K-562 leukemia = tested on: K-562 leukemia
OVCAR-8 ovarian = tested on: OVCAR-8 ovarian
HS 578T breast = tested on: HS 578T breast
OVCAR-4 ovarian = tested on: OVCAR-4 ovarian
SF-539 CNS = tested on: SF-539 CNS
SK-MEL-2 melanoma = tested on: SK-MEL-2 melanoma
SNB-19 CNS = tested on: SNB-19 CNS
SN12C renal = tested on: SN12C renal
SK-OV-3 ovarian = tested on: SK-OV-3 ovarian
EKVX NSCLC = tested on: EKVX NSCLC
DU-145 prostate = tested on: DU-145 prostate
SF-268 CNS = tested on: SF-268 CNS
NCI-H460 lung = tested on: NCI-H460 lung
LOX IMVI melanoma = tested on: LOX IMVI melanoma
ACHN renal = tested on: ACHN renal
CAKI-1 renal = tested on: CAKI-1 renal
HT29 colon = tested on: HT29 colon
BT-549 breast = tested on: BT-549 breast
CCRF-CEM leukemia = tested on: CCRF-CEM leukemia
HOP-92 NSCLC = tested on: HOP-92 NSCLC
MDA-MB-435 = tested on: MDA-MB-435
NCI-H23 lung = tested on: NCI-H23 lung
SNB-75 CNS = tested on: SNB-75 CNS
RXF 393 renal = tested on: RXF 393 renal
A549 NSCLC = tested on: A549 NSCLC
MDA-MB-231 breast = tested on: MDA-MB-231 breast
MCF7 breast = tested on: MCF7 breast
UO-31 renal = tested on: UO-31 renal
SF-295 CNS = tested on: SF-295 CNS
A498 renal = tested on: A498 renal
TK-10 renal = tested on: TK-10 renal
NCI/ADR-RES ovarian = tested on: NCI/ADR-RES ovarian
HCT-116 colon = tested on: HCT-116 colon
HCC-2998 colon = tested on: HCC-2998 colon
IGROV1 ovarian = tested on: IGROV1 ovarian
MOLT-4 leukemia = tested on: MOLT-4 leukemia
KM12 colon = tested on: KM12 colon
HL-60(TB) leukemia = tested on: HL-60(TB) leukemia
OVCAR-3 ovarian = tested on: OVCAR-3 ovarian
COLO 205 colon = tested on: COLO 205 colon
M14 melanoma = tested on: M14 melanoma
SR leukemia = tested on: SR leukemia
786-0 renal = tested on: 786-0 renal

Compound: CC1Cc2c(N(C)C)ncnc2N(C)c2ccc(Cl)cc21 (stereo not given)
- GI50 (MALME-3M melanoma): 3.73 µM
- TGI (MALME-3M melanoma): 60 µM
- GI50 (HOP-62 NSCLC): 4.81 µM
- TGI (HOP-62 NSCLC): 73.4 µM
- GI50 (SK-MEL-5 melanoma): 3.65 µM
- TGI (SK-MEL-5 melanoma): 13.8 µM
- GI50 (HCT-15 colon): 2.83 µM
- TGI (HCT-15 colon): 85.9 µM
- GI50 (PC-3 prostate): 3.41 µM
- TGI (PC-3 prostate): 81.6 µM
- GI50 (U251 CNS): 4.99 µM
- TGI (U251 CNS): 29.1 µM
- GI50 (SK-MEL-28 melanoma): 10.8 µM
- TGI (SK-MEL-28 melanoma): > 100 µM
- GI50 (T-47D breast): 6.56 µM
- TGI (T-47D breast): > 100 µM
- GI50 (NCI-H226 lung): 11 µM
- TGI (NCI-H226 lung): 57.8 µM
- GI50 (SW-620 colon): 3.35 µM
- TGI (SW-620 colon): > 100 µM
- GI50 (RPMI-8226 leukemia): 3.53 µM
- TGI (RPMI-8226 leukemia): 17.3 µM
- GI50 (NCI-H522 lung): 2.79 µM
- TGI (NCI-H522 lung): 35.3 µM
- GI50 (K-562 leukemia): 0.781 µM
- TGI (K-562 leukemia): > 100 µM
- GI50 (OVCAR-8 ovarian): 9.17 µM
- TGI (OVCAR-8 ovarian): > 100 µM
- GI50 (HS 578T breast): 3.08 µM
- TGI (HS 578T breast): > 100 µM
- GI50 (OVCAR-4 ovarian): 9.76 µM
- TGI (OVCAR-4 ovarian): > 100 µM
- GI50 (SF-539 CNS): 2.93 µM
- TGI (SF-539 CNS): 12.2 µM
- GI50 (SK-MEL-2 melanoma): 5.88 µM
- TGI (SK-MEL-2 melanoma): 57.3 µM
- GI50 (SNB-19 CNS): 5.81 µM
- TGI (SNB-19 CNS): > 100 µM
- GI50 (SN12C renal): 10.2 µM
- TGI (SN12C renal): 37.1 µM
- GI50 (SK-OV-3 ovarian): 4.93 µM
- TGI (SK-OV-3 ovarian): 72.1 µM
- GI50 (EKVX NSCLC): 2.77 µM
- TGI (EKVX NSCLC): > 100 µM
- GI50 (DU-145 prostate): 5.49 µM
- TGI (DU-145 prostate): > 100 µM
- GI50 (SF-268 CNS): 8.09 µM
- TGI (SF-268 CNS): > 100 µM
- GI50 (NCI-H460 lung): 3.86 µM
- TGI (NCI-H460 lung): 46.6 µM
- GI50 (LOX IMVI melanoma): 6 µM
- TGI (LOX IMVI melanoma): 27.2 µM
- GI50 (ACHN renal): 7.59 µM
- TGI (ACHN renal): > 100 µM
- GI50 (CAKI-1 renal): 3.12 µM
- TGI (CAKI-1 renal): > 100 µM
- GI50 (HT29 colon): 3.22 µM
- TGI (HT29 colon): 37 µM
- GI50 (BT-549 breast): 6.63 µM
- TGI (BT-549 breast): 32.1 µM
- GI50 (CCRF-CEM leukemia): 2.92 µM
- TGI (CCRF-CEM leukemia): 18 µM
- GI50 (HOP-92 NSCLC): 11 µM
- TGI (HOP-92 NSCLC): 69.6 µM
- GI50 (MDA-MB-435): 0.397 µM
- TGI (MDA-MB-435): > 100 µM
- GI50 (NCI-H23 lung): 5.74 µM
- TGI (NCI-H23 lung): > 100 µM
- GI50 (SNB-75 CNS): 2.02 µM
- TGI (SNB-75 CNS): 8.52 µM
- GI50 (RXF 393 renal): 2.03 µM
- TGI (RXF 393 renal): 6.98 µM
- GI50 (A549 NSCLC): 10.7 µM
- TGI (A549 NSCLC): > 100 µM
- GI50 (MDA-MB-231 breast): 5.84 µM
- TGI (MDA-MB-231 breast): 55.4 µM
- GI50 (MCF7 breast): 1.51 µM
- TGI (MCF7 breast): > 100 µM
- GI50 (UO-31 renal): 4.4 µM
- TGI (UO-31 renal): 72.4 µM
- GI50 (SF-295 CNS): 1.98 µM
- TGI (SF-295 CNS): 9.85 µM
- GI50 (A498 renal): 3.53 µM
- TGI (A498 renal): 19.2 µM
- GI50 (TK-10 renal): 14.8 µM
- TGI (TK-10 renal): > 100 µM
- GI50 (NCI/ADR-RES ovarian): 2.4 µM
- TGI (NCI/ADR-RES ovarian): 23.9 µM
- GI50 (HCT-116 colon): 3.48 µM
- TGI (HCT-116 colon): 23.6 µM
- GI50 (HCC-2998 colon): 6.9 µM
- TGI (HCC-2998 colon): 37.3 µM
- GI50 (IGROV1 ovarian): 8.48 µM
- TGI (IGROV1 ovarian): > 100 µM
- GI50 (MOLT-4 leukemia): 3.52 µM
- TGI (MOLT-4 leukemia): 27.3 µM
- GI50 (KM12 colon): 3.15 µM
- TGI (KM12 colon): > 100 µM
- GI50 (HL-60(TB) leukemia): 2.81 µM
- TGI (HL-60(TB) leukemia): 15.8 µM
- GI50 (OVCAR-3 ovarian): 2.51 µM
- TGI (OVCAR-3 ovarian): 8.88 µM
- GI50 (COLO 205 colon): 2.44 µM
- TGI (COLO 205 colon): 6.55 µM
- GI50 (M14 melanoma): 2.39 µM
- TGI (M14 melanoma): > 100 µM
- GI50 (SR leukemia): 0.463 µM
- TGI (SR leukemia): 20.3 µM
- GI50 (786-0 renal): 8.26 µM
- TGI (786-0 renal): 29.3 µM
